Test results as given in US20140106356A1, “KIT FOR DRUG METABOLISM DETERMINATION AND TOXICITY PREDICTION” (NATIONAL TAIWAN UNIVERSITY, priority 2012, published 2014).

Tested on: CYP1B1
Assay: Cell-based CYP1B1 enzyme activity assay (Luciferin-CEE luminescence, normalized to genomic DNA) in 10F-HDF spheroid-scaffold culture
Conditions: addition to the spheroid-scaffold culture of 10F-HDFs (GCH tri-copolymer scaffold); FIG. 5B

induction of CYP1B1 activities: did not induce
SMILES: COc1ccc2[nH]c([S+]([O-])Cc3ncc(C)c(OC)c3C)nc2c1 (stereo not shown) [omeprazole]
